This note sets out measurements from PubChem BioAssay (NCI).

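Values below derive from 48-hour exposures of cells grown in 96-well plates, with endpoints linearly interpolated between the two concentrations bracketing the appropriate inhibition level. TGI marks complete inhibition of growth.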 Bounds are passed on as bounds.

Some test systems named below: T-47D breast; MCF7 breast; ACHN renal; SF-268 CNS; SW-620 colon; SNB-19 CNS; OVCAR-4 ovarian; UACC-257 melanoma; UO-31 renal; PC-3 prostate; MALME-3M melanoma; HOP-92 NSCLC; COLO 205 colon; EKVX NSCLC; MDA-N; NCI-H226 lung.
What all share (test): NCI anticancer screen, dose series, 48 h

Take `CN1CCN(c2nc3ccccc3nc2C(=O)c2ccc(Cl)cc2)CC1`: the TGI in the assay with T-47D breast, in the assay on MCF7 breast, in the assay on ACHN renal, in the assay on SF-268 CNS, with SW-620 colon and in the assay with SNB-19 CNS was over 100 µM each time. Further, the TGI was over 100 µM with OVCAR-4 ovarian; over 100 µM in the assay on UACC-257 melanoma; over 100 µM in the assay on UO-31 renal; over 100 µM with PC-3 prostate; 48.1 µM with MALME-3M melanoma; over 100 µM in the assay on HOP-92 NSCLC. The TGI with COLO 205 colon, in the assay on EKVX NSCLC and with MDA-N was over 100 µM throughout.
Turning to `CC(C)C1CC=NN1C(=O)OC(C)(C)C` (stereo not given), the TGI in the assay on T-47D breast, with MCF7 breast, with ACHN renal, with SF-268 CNS, with SW-620 colon and in the assay with UACC-257 melanoma was over 100 µM in each case. For the same compound, the TGI in the assay with UO-31 renal, in the assay with NCI-H226 lung, with HOP-92 NSCLC, in the assay on COLO 205 colon, in the assay on EKVX NSCLC and in the assay with MDA-N was over 100 µM each time.
As to `COc1ncnc2c1cnn2Cc1cn(COCC(O)CO)nn1` (stereo not given), the TGI was over 100 µM with T-47D breast; over 100 µM in the assay on MCF7 breast; over 100 µM in the assay with ACHN renal; 35 µM with SF-268 CNS; over 100 µM in the assay with SW-620 colon; over 100 µM in the assay with SNB-19 CNS. For the same compound, the TGI in the assay with OVCAR-4 ovarian, with UACC-257 melanoma, with UO-31 renal, with PC-3 prostate, in the assay on NCI-H226 lung and in the assay on HOP-92 NSCLC was over 100 µM each time. Besides, the TGI in the assay with COLO 205 colon, with EKVX NSCLC and in the assay with MDA-N was over 100 µM throughout.
Regarding `NS(=O)(=O)c1ccc(NC(=O)c2cc([N+](=O)[O-])cc([N+](=O)[O-])c2)cc1`, the TGI in the assay with T-47D breast was 85.8 µM; in the assay with MCF7 breast it was 53.9 µM; in the assay with SF-268 CNS it was over 100 µM; with SW-620 colon it was over 100 µM; in the assay with SNB-19 CNS it was over 100 µM; in the assay on OVCAR-4 ovarian, 79.2 µM. The TGI in the assay with UACC-257 melanoma is 32 µM; in the assay with UO-31 renal it was over 100 µM; in the assay on PC-3 prostate it was 86.8 µM; in the assay on MALME-3M melanoma it was 57.2 µM; in the assay on NCI-H226 lung it was over 100 µM; with HOP-92 NSCLC, 91.3 µM. The TGI in the assay with COLO 205 colon is 51.8 µM; with MDA-N it was 47.2 µM.
Take `COC(=O)C1Cc2c([nH]c3ccccc23)C(c2cccc(O)c2)N1` (stereo not given): the TGI with T-47D breast is over 100 µM; with MCF7 breast, over 100 µM; in the assay with ACHN renal, over 100 µM; in the assay with SF-268 CNS, over 100 µM; with SW-620 colon it was 60.8 µM; in the assay with SNB-19 CNS, over 100 µM. The TGI is over 100 µM in the assay on OVCAR-4 ovarian; over 100 µM with UACC-257 melanoma; over 100 µM in the assay on UO-31 renal; 80.3 µM in the assay on PC-3 prostate; over 100 µM in the assay on NCI-H226 lung; 79.9 µM with HOP-92 NSCLC. Moreover, the TGI with COLO 205 colon is 90.3 µM; with EKVX NSCLC, over 100 µM; with MDA-N, 40.1 µM.
As for `O=C(O)C(Cc1ccc2c(c1)CCC2)(Cc1ccc2c(c1)CCC2)C(=O)O`, the TGI in the assay with T-47D breast, in the assay with MCF7 breast, with ACHN renal, with SF-268 CNS, in the assay on SW-620 colon and in the assay with SNB-19 CNS was over 100 µM throughout. Also, the TGI in the assay with OVCAR-4 ovarian, in the assay on UACC-257 melanoma, in the assay on UO-31 renal, in the assay with PC-3 prostate, in the assay on MALME-3M melanoma and with NCI-H226 lung was over 100 µM throughout. The TGI in the assay on COLO 205 colon, in the assay on EKVX NSCLC and in the assay with MDA-N was over 100 µM in each case.
Consider `O=[N+]([O-])c1cccc(N=C2c3ccccc3CN2c2cccc([N+](=O)[O-])c2)c1`, for which the TGI in the assay on T-47D breast, in the assay on MCF7 breast, in the assay with ACHN renal, in the assay on SF-268 CNS, in the assay on SW-620 colon and in the assay with SNB-19 CNS was over 100 µM in each case. The TGI in the assay on OVCAR-4 ovarian, in the assay on UACC-257 melanoma, in the assay with UO-31 renal, in the assay with PC-3 prostate, in the assay with NCI-H226 lung and in the assay with HOP-92 NSCLC was over 100 µM in each case. Further, the TGI in the assay on COLO 205 colon, in the assay with EKVX NSCLC and in the assay with MDA-N was over 100 µM in each case.
As for `Oc1c(C2=NNC(c3cccs3)C2)ccc2ccccc12` (stereo not given), the TGI in the assay with T-47D breast was over 100 µM; with MCF7 breast, 51.7 µM; with ACHN renal, over 100 µM; with SF-268 CNS it was 38.3 µM; in the assay with SW-620 colon, 70.3 µM; in the assay with OVCAR-4 ovarian, over 100 µM. The TGI is over 100 µM with UACC-257 melanoma; over 100 µM with UO-31 renal; over 100 µM with PC-3 prostate; over 100 µM in the assay with MALME-3M melanoma; over 100 µM with NCI-H226 lung; 81.5 µM in the assay on HOP-92 NSCLC. Besides, the TGI with COLO 205 colon was determined as 37.7 µM; in the assay with MDA-N, 35.3 µM.
In the case of `CC(=O)OCC1OC(Nc2ccc3nc(C)n(-c4cccc(C)c4)c(=O)c3c2)C(OC(C)=O)C(OC(C)=O)C1OC(C)=O` (stereo not given), the TGI in the assay with T-47D breast, in the assay with MCF7 breast, in the assay on ACHN renal, with SF-268 CNS, with SW-620 colon and with SNB-19 CNS was over 62.5 µM in each case. Moreover, the TGI in the assay with OVCAR-4 ovarian, in the assay with UACC-257 melanoma, in the assay on UO-31 renal, in the assay with PC-3 prostate, in the assay with MALME-3M melanoma and in the assay on NCI-H226 lung was over 62.5 µM throughout. Moreover, the TGI in the assay with COLO 205 colon, in the assay with EKVX NSCLC and in the assay with MDA-N was over 62.5 µM throughout.
